7 compounds from patent US4940713A, “Substituted glutamic acids” (Burroughs Wellcome Co., priority 1988, dated 1990) can be followed below.

The subject of series [1] is mouse L cells.
Series [2] deals with mouse L cells. Put plainly: Reversal of Cytotoxic Activity on mouse L cells.
In series [3] the test system is MCF-7 breast adenocarcinoma. Put plainly: Cytotoxicity Assay, MCF-7 (MTT dye reduction assay). The series is classed as cell-based. To be noted: 72 hours. The method, then: Cells and Medium: MCF-7 breast adenocarcinoma, obtained from the American Type Culture Collection (ATCC) is grown in RPMI 1640 medium supplemented with 10 nM calcium leucovorin instead of folic acid as the folate source, 10% dialyzed fetal calf serum, penicillin, streptomycin and sodium pyruvate (110 μg/ml).
Cytotoxicity Assay: Cells are seeded into 96 well plates using a Perkin Elmer Pro/pette. MCF-7 cells are seeded at 15,000 cells per well in 150 μl of medium. Prior to the addition of drugs, cultures were incubated for 24 hours at 37°. Compounds were added at 2× concentration in 150 μl of medium and each concentration was assayed in triplicate. Cultures were incubated for 72 hours in a 37° humidified incubator at 5% CO2. Inhibition of cell growth was measured using the MTT dye reduction assay.
MTT Dye Reduction Assay: Cell dilutions for a standard curve were prepared from a 72 hour log-phase culture. Serial dilutions were seeded in triplicate in 96 well plates and incubated at 37° for 1 hour. MTT (3-(4,5-dimethylthiazol-2-yl)-2,5-diphenyltetrazolium bromide) was dissolved in phosphate buffered saline at 5 mg/ml and sonicated for 30 seconds. Using the Perkin Elmer Pro/pette, 200 μl of medium was removed and 100 μl of MTT added to the wells of the standard curve and test plates. Suspension cultures were spun for 5 minutes at 1000 rpm before removing medium from the wells. Plates were incubated for 1 hour at 37° on a platform shaker. Following this incubation, 100 μl of medium was removed from the wells and 100 μl of DMSO added to each well. The plates were sonicated for approximately 10 seconds to solubilize the precipitated formazan dye. The absorbance of each well was measured using a Titertek Multiskan MC microtiter plate reader at 570 nm with a reference wavelength of 750 nm.
A general note: Tetrazolium dyes change colour on reduction, which living cells bring about.

Series [4] has as its system Lactobacillus casei. Put plainly: Activity against Lactobacillus casei. Particulars: in words. The series is classed as cell-based.
The test system of series [5] is Streptococcus faecium. Put plainly: Activity against Streptococcus faecium. Type of series: cell-based. To be noted: in words.
For series [6], the system named is Spiroplasma citri. Put plainly: Activity Against Spiroplasma citri, Sensitivity Test. Type of series: cell-based. Particulars: in words. The method, then: Frozen broth cultures are diluted to a predetermined titre of 100 color changing units for the test. Organisms are grown in Difco PPLO broth base with added serum, glucose, phenol red, ampicillin, thallium acetate and yeast extract. Incubation is at 32° C. Incubation with varying levels of the test compound in the above medium are performed in well plates and an amount of Spiroplasma citri cells is added that will produce a color change by a fixed time of growth. The lowest concentration of compound that fails to produce a color change or gives a two day delay in color change indicates minimum inhibitory concentration.

In series [7] the test system is yellow fever virus. To be noted: in words.
A short description of series [8]: Stability on extended exposure to light. Type of series: physicochemical. Particulars: white powder.

Read-outs that look alike come from different tables or passages of the source.

For `Nc1nc2c(c(=O)[nH]1)N(C=O)C(CNc1ccc(C(=O)N[C@@H](CCC(=O)O)C(=O)O)cc1)CN2` (stereo partly shown) [calcium leucovorin], in series [1], the “reversal of the cytotoxicity of the compound of Example 1” value was “able to reverse the cytotoxicity of the compound of Example 1” and the “reversal of the cytotoxicity of the compound of Example 3” value (shortened to “reversal … of Example 3”) is “able to reverse the cytotoxicity of the compound of Example 3”.

On to `NC(=O)c1ncn([C@@H]2O[C@H](COP(=O)(O)O)[C@@H](O)[C@H]2O)c1N` [AICAR, 5-aminoimidazole-4-carboxamide ribonucleotide], for which the “reversal … of Example 3” value in series [2] is “able to reverse the cytotoxicity of the compound of Example 3”.

Regarding `Nc1nc(N)c(CCCNc2ccc(C(=O)N[C@@H](CCC(=O)O)C(=O)O)cc2)c(=O)[nH]1` [Example 1, N-[4-[3-(2,4-diamino-1,6-dihydro-6-oxo-5-pyrimidinyl)propylamino]benzoyl]-L-glutamic acid], the “inhibiting the growth of MCF-7 cells” value in series [3] is “active in inhibiting the growth of MCF-7 cells”. Also, in series [4], the “activity against Lactobacillus casei” value is reported as “possess activity against certain bacterial organisms”. Further, the “activity against Streptococcus faecium” value in series [5] is recorded as “possess activity against certain bacterial organisms”. Moreover, the “activity against Spiroplasma citri” value in series [6] is given as “activity against the mycoplasma, Spiroplasma citri”. In addition, in series [7], the “activity against yellow fever virus” value is on record as “some activity against yellow fever virus”.

Turning to `CN(CCCc1c(N)nc(N)[nH]c1=O)c1ccc(C(=O)N[C@@H](CCC(=O)O)C(=O)O)cc1` [Example 2, N-[4-[3-(2,4-diamino-1,6-dihydro-6-oxo-5-pyrimidinyl)-N-methylpropylamino]benzoyl]-L-glutamic acid], the “inhibiting the growth of MCF-7 cells” value in series [3] is “active in inhibiting the growth of MCF-7 cells”. The “activity against Spiroplasma citri” value in series [6] is listed as “activity against the mycoplasma, Spiroplasma citri”.

For `CN(CCc1c(N)nc(N)[nH]c1=O)c1ccc(C(=O)N[C@@H](CCC(=O)O)C(=O)O)cc1` [Example 5, N-[4-[2-(2,4-diamino-1,6-dihydro-6-oxo-5-pyrimidinyl)ethyl-N-methylamino]benzoyl]-L-glutamic acid], in series [8], the “appearance upon extended exposure to light” value is reported as “became tan upon extended exposure to light”.

As for `O=c1[nH]cnc2nc[nH]c12` [hypoxanthine], in series [1], the “reversal of the cytotoxicity of the compound of Example 1” value is recorded as “able to reverse the cytotoxicity of the compound of Example 1” and the “reversal … of Example 3” value is given as “able to reverse the cytotoxicity of the compound of Example 3”.

With `Nc1nc(N)c(CCCN(C=O)c2ccc(C(=O)N[C@@H](CCC(=O)O)C(=O)O)cc2)c(=O)[nH]1` [Example 3, N-[4-[3-(2,4-Diamino-1,6-dihydro-6-oxo-5-pyrimidinyl)-N-formylpropylamino]benzoyl]-L-glutamic acid], the “inhibiting the growth of MCF-7 cells” value in series [3] is on record as “active in inhibiting the growth of MCF-7 cells”. Besides, the “activity against Spiroplasma citri” value in series [6] was “activity against the mycoplasma, Spiroplasma citri”. For the same compound, the “activity against yellow fever virus” value in series [7] is “some activity against yellow fever virus”.
